{"source": "patent US4472397A", "about": "“Use of certain 1-substituted-triazolo-benzodiazepines to treat psychoses” (priority 1983, dated 1984)", "key": {"[1]": {"tested_on": "^3 H-Spiroperidol binding", "assay": "animal or person", "assay_type": "in vivo, Male ICR mice", "details": "for activity at 50 mg/kg: Mus musculus, sc, read-out: In vivo ^3 H-Spiroperidol % of Control", "procedure": "The following representative compounds were tested in an in vivo mouse ^3 H-Spiroperidol binding test.\nThe test procedure was as follows:\nMale ICR mice weighing 20-22 g were used.\nThe animals were dosed with the ^3 H-Spiroperidol solution at 66 micro-Curie/kg in 0.2 ml, by the subcutaneous route. The animals were sacrificed 2 hours later and sections of the brains of the mice were removed with striata and septum and some adjacent cortex. The tissues were weighed after freezing on dry ice and dissolved in 1 ml of Protosol overnight at 35° C. The Protosol was neutralized with 80 μl of 6N hydrochloric acid and 15 ml of ACS scintillation fluid was added. All samples were then counted in a liquid scintillation counter.\nA background of 25 counts per minute (CPM) was subtracted from the counts for each sample counted. The CPM/mg of the tissue was calculated and a statistical t test was used to test the significance of the value."}, "[2]": {"tested_on": "schizoaffective patient", "assay": "Treatment of a human schizoaffective patient with adinazolam (Example 2)", "assay_type": "in vivo", "details": "5 mg bid first day, 5 mg tid second day; over two days; one patient refractory to tricyclic antidepressant and stelazine", "procedure": "In a human patient, adinazolam was given for two days at a dosage of 5 mg bid (twice a day) the first day and 5 mg tid (three times a day) the second day to a human schizoaffective patient suffering moodcongruent delusions and persecutory auditory hallucinations which had been refractory to four months of therapy with a tricyclic antidepressant and stelazine. The clinician serving the patient found a remarkable approximately fifty percent (50%) improvement in the patient's condition over the two days of treatment with adinazolam."}, "[3]": {"tested_on": "psychotic, including schizophrenic, disorders", "assay": "Clinical trials in human patients with psychotic, including schizophrenic, disorders (Example 3)", "assay_type": "in vivo", "procedure": "Clinical trials with the lead compound, adinazolam, in the treatment of human patients for psychotic, including schizophrenic, disorders in the absence of depression are in progress. […] Patients are being maintained on dosages of from 2.5 to 20 mg. of adinazolam qid (four times a day).\nIn one patient extrapyramidal side effects persisting from previous medication disappeared with adinazolam therapy."}, "[4]": {"tested_on": "serum prolactin", "assay": "Serum prolactin levels in open-label depression studies", "assay_type": "in vivo, human", "text": "(Three of the patients had been treated recently with a phenothiazine or amoxapine)."}, "[5]": {"tested_on": "intractable psychosis or schizoaffective illnesses", "assay": "Preliminary clinical trials in human patients with intractable psychosis or schizoaffective illnesses", "assay_type": "in vivo", "details": "small, but effective and safe dosage amounts"}, "[6]": {"tested_on": "acute psychosis", "details": "cited from earlier work"}, "[7]": {"details": "Dose 50 mg/kg, subcutaneous, one hour before ^3 H-Spiroperidol, sacrificed 2 hours later"}}, "note": "Entries after “also recorded” stand apart in the source; their conditions may differ. Read-outs that look alike come from different tables or passages of the source."}
{"molecule": "CN(C)Cc1nnc2n1-c1ccc(Cl)cc1C(c1ccccc1)=NC2", "note": "[Compound 1, 8-chloro-1-[(dimethylamino)methyl]-6-phenyl-4H--s-triazolo[4,3-a][1,4]-benzodiazepine]", "values": [{"measurement": "activity at 50 mg/kg", "setting": "[1]", "value": 82, "unit": "%"}, {"measurement": "Activity in the ^3 H-Spiroperidol binding test (in words)", "setting": "[1]; animals, in vivo, listed as adinazolam", "value": "active; also recorded: weak but suggested antipsychotic-like activity"}, {"measurement": "improvement in the patient's condition", "setting": "[2]", "value": "~50", "unit": "%"}, {"measurement": "improvement of patients", "setting": "[3]; five patients, 2.5 to 20 mg qid, absence of depression", "value": "all experienced moderate or marked improvement"}, {"measurement": "extrapyramidal side effects persisting from previous medication", "setting": "[3]; one patient", "value": "disappeared"}, {"measurement": "effect of unintentional withdrawal of medication", "setting": "[3]; one patient, medication withdrawn for 24 hours", "value": "reverted to a psychotic condition"}, {"measurement": "effect of reinitiated therapy", "setting": "[3]; one patient, reinitiated in the morning after 24 hour withdrawal, that same day", "value": "became lucid again that same day"}, {"measurement": "prolactin levels in patients with elevated prolactin at introductory screening", "setting": "[4]; four patients (2 males; 2 females), three recently treated with a phenothiazine or amoxapine", "value": "the prolactin levels in all four patients normalized"}, {"measurement": "effect on serum prolactin levels", "setting": "[4]; open-label depression studies", "value": "no apparent elevating effect on serum prolactin levels"}, {"measurement": "symptoms of schizophrenia and affective improvement", "setting": "[5]", "value": "improved symptoms of schizophrenia and affective improvement"}]}
{"molecule": "CN1CCN(c2nnc3n2-c2ccc(Cl)cc2C(c2ccccc2)=NC3)CC1", "note": "[Compound 2, 8-chloro-1-(4-methyl-1-piperazinyl)-6-phenyl-4H--s-triazolo[4,3-a][1,4]benzodiazepine]", "values": [{"measurement": "In vivo ^3 H-Spiroperidol % of Control", "setting": "[1]; Dose 50 mg/kg, subcutaneous, one hour before ^3 H-Spiroperidol, sacrificed 2 hours later, 50 mg/kg", "value": 73, "unit": "%"}, {"measurement": "activity at 50 mg/kg", "setting": "[1]; [7]", "value": 69, "unit": "%"}]}
{"molecule": "CN(C)CCc1nnc2n1-c1ccc(Cl)cc1C(c1ccccc1)=NC2", "note": "[Compound 3, 8-chloro-1-[2-(dimethylamino)ethyl]-6-phenyl-4H--s-triazolo[4,3-a][1,4]benzodiazepine]", "values": [{"measurement": "activity at 50 mg/kg", "setting": "[1]; [7]", "value": 78, "unit": "%"}]}
{"molecule": "CN1CCN(c2nnc3n2-c2ccccc2C(c2ccccc2)=NC3)CC1", "note": "[Compound 4, 1-(4-methyl-1-piperazinyl)-6-phenyl-4H--s-triazolo[4,3-a][1,4]benzodiazepine]", "values": [{"measurement": "activity at 50 mg/kg", "setting": "[1]; [7]", "value": 59, "unit": "%"}]}
{"molecule": "CC1NC(c2ccccc2)c2cc(Cl)ccc2-n2c1nnc2N1CCN(C)CC1", "note": "(stereo not shown) [Compound 5, 8-chloro-1-(4-methyl-1-piperazinyl)-4-methyl-5,6-dihydro-6-phenyl-4H--s-triazolo[4,3-a][1,4]benzodiazepine]", "values": [{"measurement": "In vivo ^3 H-Spiroperidol % of Control", "setting": "[1]; [7]", "value": 89, "unit": "%"}]}
{"molecule": "CN1CCN(c2nnc3n2-c2ccccc2C(c2ccccc2Cl)=NC3)CC1", "note": "[Compound 6, 1-(4-methyl-1-piperazinyl)-6-(2-chlorophenyl)-4H--s-triazolo[4,3-a][1,4]benzodiazepine]", "values": [{"measurement": "activity at 50 mg/kg", "setting": "[1]; [7]", "value": 65, "unit": "%"}]}
{"molecule": "CCN1CCN(c2nnc3n2-c2ccccc2C(c2ccccc2Cl)=NC3)CC1", "note": "[Compound 7, 1-(4-ethyl-1-piperazinyl)-6-(2-chlorophenyl)-4H--s-triazolo[4,3][1,4]benzodiazepine]", "values": [{"measurement": "activity at 50 mg/kg", "setting": "[1]; [7]", "value": 72, "unit": "%"}]}
{"molecule": "CN1C(=O)CN=C(c2ccccc2)c2cc(Cl)ccc21", "note": "[diazepam]", "values": [{"measurement": "effectiveness versus haloperidol in acute psychosis", "setting": "[6]; over 24 hours of treatment", "value": "at least as effective as haloperidol"}, {"measurement": "sedation effects", "setting": "[6]; treatment of acute psychosis", "value": "marked sedation effects"}]}
